Read-outs that look alike come from different tables or passages of the source.
Legend:
[1] = tested on: RAW 264.7 cells; assay: MTT cell viability, RAW 264.7; assay type: cell-based, murine; conditions: RAW 264.7, MTT, 24 h
Experimental: 3-(4,5-dimethylthiazol-2-yl)-2,5-diphenyl-2H-tetrazolium bromide (MTT) was added to the cells in order to measure the cell viability at 24 h, as previously reported. IC50 values were determined from the dose–response curves for both NO inhibition (%) and the cell viability (%) using GraphPad Prism 9 software (GraphPad Software, La Jolla, CA, USA) and were presented as the mean ± SD of three independent experiments, each conducted in triplicate.
Figure 2 Brown histograms: Anti-inflammatory activity in terms of NO production inhibition (%), measured in vitro using RAW 264.7 murine macrophages. NO production was induced by LPS (1 µg/mL). Data were plotted as % NO inhibition with respect to inhibition with LPS-only treatment. Salmon histograms: MTT assays performed in same experimental conditions in order to verify effect on RAW 264.7 cells’ viability of Indomethacin and tested complexes. Data were plotted as % of cell viability with respect to viability with LPS-only treatment (1 µg/mL). Indomethacin (Ind) was used at concentration of 25 µM, while all other complexes were used at 5 µM, for 24 h. Bars ± SDs are shown (n = 3). ** p < 0.01 and **** p < 0.0001 for complex 3bP and Ind vs. LPS only; not significant (n.s.) where not indicated.

[2] = biological target: T1, hMAO-A (Homo sapiens, UniProt P21397); assay: hMAO-A inhibitory activity; assay type: biochemical
T1 sequence (P21397 1-527): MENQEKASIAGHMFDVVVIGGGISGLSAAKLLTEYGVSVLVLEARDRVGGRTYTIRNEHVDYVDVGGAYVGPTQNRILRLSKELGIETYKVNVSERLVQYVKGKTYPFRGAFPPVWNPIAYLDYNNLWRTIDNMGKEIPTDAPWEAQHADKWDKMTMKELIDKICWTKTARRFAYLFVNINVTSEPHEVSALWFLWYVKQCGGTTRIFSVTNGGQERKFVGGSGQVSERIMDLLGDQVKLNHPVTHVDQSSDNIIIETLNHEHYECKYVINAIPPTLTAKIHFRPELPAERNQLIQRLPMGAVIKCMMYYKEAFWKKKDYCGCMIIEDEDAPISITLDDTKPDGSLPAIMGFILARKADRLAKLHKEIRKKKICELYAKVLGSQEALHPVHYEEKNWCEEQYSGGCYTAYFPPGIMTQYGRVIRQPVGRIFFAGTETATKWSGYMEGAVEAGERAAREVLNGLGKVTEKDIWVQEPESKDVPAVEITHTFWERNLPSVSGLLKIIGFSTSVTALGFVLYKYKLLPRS
Experimental: (§1) Altered levels of MAO-A/B are associated with the degeneration of neurotransmitter biogenic amines such as serotonin, noradrenaline, and dopamine and are implicated in several diseases, such as depression, cancer, PD, and AD [27]. With this in mind, we explored the potential of these complexes in inhibiting human MAO (hMAO) isoforms.
(§2) The inhibitory activity of the gold and silver complexes against hMAO-A and hMAO-B was evaluated using a previously published protocol. […] Data analysis was performed using GraphPad PRISM 9 (GraphPad Software®, San Diego, CA, USA). IC50 values were determined from the dose–response curves and were presented as the mean ± SD of three independent experiments, each conducted in triplicate.

[3] = biological target: electric eel acetylcholinesterase (eeAChE) (Electrophorus electricus, UniProt O42275)
Experimental: (§3) The enzyme-inhibiting properties of the Au and Ag complexes against electric eel acetylcholinesterase (eeAChE) and equine butyrylcholinesterase (eqBChE) were assessed via a modified Ellman assay. […] A buffer-only control was included. The inhibition potency (IC50) was calculated from triplicate dose–response data, presented as the mean ± SD.

[4] = biological target: equine butyrylcholinesterase (eqBChE) (Equus caballus, UniProt P81908)
Experimental: as §3

[5] = tested on: NO production in LPS-stimulated RAW 264.7 murine macrophages (iNOS); assay: Griess assay, NO production (iNOS) in LPS-stimulated RAW 264.7 macrophages; assay type: cell-based; conditions: for inhibition of NO production: 5 µM
Experimental: As a positive control, the nonsteroidal anti-inflammatory drug (NSAID) Indomethacin (Ind) was used.
Then, the cell culture medium was combined with an equal volume of Griess reagent at 40 mg/mL (ratio 1:1), and after a 30 min incubation with agitation, the optical density was measured at 540 nm. The levels of NO vs. LPS were calculated from the absorbance measurements using the following formula:(1) INO vs LPS (%)=ABSLPS−ABSSample/ABSLPS∗100 where ABSLPS represents the average absorbance of cells treated with LPS alone, and ABSsample represents the average absorbance of cells treated with both LPS and the tested complexes or Indomethacin.
NO production was induced by LPS (1 µg/mL). […] Salmon histograms: MTT assays performed in same experimental conditions in order to verify effect on RAW 264.7 cells’ viability of Indomethacin and tested complexes. Data were plotted as % of cell viability with respect to viability with LPS-only treatment (1 µg/mL).

[6] = biological target: T2, hMAO-B (Homo sapiens, UniProt P27338); assay type: biochemical; conditions: for IC50: mean ± S.D., three experiments in triplicate
T2 sequence (P27338 1-520): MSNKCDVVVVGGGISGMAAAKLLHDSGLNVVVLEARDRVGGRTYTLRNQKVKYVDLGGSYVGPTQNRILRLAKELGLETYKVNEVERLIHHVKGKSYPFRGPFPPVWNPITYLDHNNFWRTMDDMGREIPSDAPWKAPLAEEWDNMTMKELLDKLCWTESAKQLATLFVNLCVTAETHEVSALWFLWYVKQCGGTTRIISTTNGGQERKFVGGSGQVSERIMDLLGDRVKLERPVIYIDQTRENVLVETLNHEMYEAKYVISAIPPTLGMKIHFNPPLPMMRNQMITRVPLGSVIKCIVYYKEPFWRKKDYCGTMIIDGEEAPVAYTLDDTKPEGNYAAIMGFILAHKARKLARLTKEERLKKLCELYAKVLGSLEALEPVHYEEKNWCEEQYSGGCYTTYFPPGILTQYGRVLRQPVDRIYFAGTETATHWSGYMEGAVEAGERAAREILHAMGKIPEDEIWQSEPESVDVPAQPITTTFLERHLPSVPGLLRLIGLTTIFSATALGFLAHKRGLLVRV
Experimental: as §1, §2

[7] = tested on: intracellular ROS production in 3T3-L1 murine fibroblasts; assay: Intracellular ROS (H2DCF-DA) in menadione-treated 3T3-L1 fibroblasts; assay type: cell-based; conditions: menadione 25 µM, 15 min; for ROS production reduced to, compared to Men treatment alone: 24 h
Experimental: N-acetyl-cysteine (NAC), a powerful antioxidant, was used as a positive control.
The antioxidant capacity of the Au and Ag complexes was evaluated in 3T3-L1 murine fibroblasts by assessing the intracellular reactive oxygen species (ROS) levels using a DCFH2-DA assay, following a previously established method [36]. The cells were seeded in 96-well plates and incubated with the tested complexes at concentrations of between 0.1 and 20 µM for a 24 h period. […] N-acetylcysteine (NAC), a recognized antioxidant, served as a positive control at 20 mM. […] The % of ROS production inhibition (IROS) vs. that of the menadione-treated cells was calculated using the following formula:(2) IROS vs Men (%)=FMen−FSample/FMen∗100 where FMen represents the average fluorescence of the cells treated with menadione alone, and Fsample represents the average fluorescence of the cells treated with both menadione and the tested complexes or NAC.
Data were plotted as % ROS inhibition with respect to inhibition with Men-only treatment.

[8] = Table S2, experimentally derived IC50, read-out: IC50 (μM), hMAOA (Table S2)
[9] = mean ± S.D., three experiments in triplicate, read-out: IC50 (µM) hMAO-A
[10] = read-out: IC50 (µM) eeAChE, mean ± S.D., three experiments in triplicate
[11] = read-out: IC50 (µM) eqBChE, mean ± S.D., three experiments in triplicate
[12] = read-out: IC50 (μM), hBChE (Table S1), Table S1, experimentally derived IC50, column headed hBChE
[13] = LPS 1 µg/mL, RAW 264.7, 24 h, read-out: IC50 (µM) NO Inhibition
[14] = read-out: IC50 (μM), hAChE (Table S1), Table S1, experimentally derived IC50, column headed hAChE

Chain of equine butyrylcholinesterase (eqBChE) (P81908 whole entry): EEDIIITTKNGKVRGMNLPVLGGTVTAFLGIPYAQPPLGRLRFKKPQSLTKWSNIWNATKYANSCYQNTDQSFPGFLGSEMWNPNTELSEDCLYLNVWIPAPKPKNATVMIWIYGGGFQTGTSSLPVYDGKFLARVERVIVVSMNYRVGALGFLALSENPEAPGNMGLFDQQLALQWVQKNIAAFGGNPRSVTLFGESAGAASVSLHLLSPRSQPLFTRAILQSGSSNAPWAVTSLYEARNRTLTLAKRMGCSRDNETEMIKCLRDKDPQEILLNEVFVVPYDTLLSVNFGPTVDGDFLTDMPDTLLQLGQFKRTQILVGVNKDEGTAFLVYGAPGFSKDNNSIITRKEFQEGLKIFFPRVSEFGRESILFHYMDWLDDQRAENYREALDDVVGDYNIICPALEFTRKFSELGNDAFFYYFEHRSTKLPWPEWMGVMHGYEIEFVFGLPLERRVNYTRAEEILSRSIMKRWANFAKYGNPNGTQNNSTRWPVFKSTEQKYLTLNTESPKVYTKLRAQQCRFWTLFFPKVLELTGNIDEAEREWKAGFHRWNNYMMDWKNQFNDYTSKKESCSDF
Chain of electric eel acetylcholinesterase (eeAChE) (O42275 24-633): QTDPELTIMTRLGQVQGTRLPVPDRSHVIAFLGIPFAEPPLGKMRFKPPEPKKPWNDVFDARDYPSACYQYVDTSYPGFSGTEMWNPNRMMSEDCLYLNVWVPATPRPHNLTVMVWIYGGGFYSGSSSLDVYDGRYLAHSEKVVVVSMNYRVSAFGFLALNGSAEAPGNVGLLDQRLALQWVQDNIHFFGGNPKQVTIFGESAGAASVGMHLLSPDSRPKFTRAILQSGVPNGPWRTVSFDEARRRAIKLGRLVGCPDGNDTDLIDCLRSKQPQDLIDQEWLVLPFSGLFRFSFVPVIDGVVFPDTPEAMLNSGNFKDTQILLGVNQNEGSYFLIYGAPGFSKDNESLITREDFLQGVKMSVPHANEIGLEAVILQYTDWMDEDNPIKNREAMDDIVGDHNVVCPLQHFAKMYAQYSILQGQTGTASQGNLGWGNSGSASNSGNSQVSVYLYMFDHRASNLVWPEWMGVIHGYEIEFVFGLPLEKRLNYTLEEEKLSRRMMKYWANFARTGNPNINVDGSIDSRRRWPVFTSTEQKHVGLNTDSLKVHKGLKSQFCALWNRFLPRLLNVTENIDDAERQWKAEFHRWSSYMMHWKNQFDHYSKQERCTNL

Row | SMILES | IC50 [1] [µM] | IC50 [2, 8] [µM] | IC50 [2, 9] [µM] | IC50 [3, 10] [µM] | SI, eqBChE selectivity index = IC50(eeAChE)/IC50(eqBChE) [4] | IC50 [4, 11] [µM] | IC50 [4, 12] [µM] | IC50 [5, 13] [µM] | SI, hMAO-B selectivity index = IC50(hMAO-A)/IC50(hMAO-B) [6] | IC50 [6] [µM] | ROS production reduced to, compared to Men treatment alone ([7]; 1 µM) | inhibition of NO production ([5]; 24 h, vs LPS-only treatment) | IC50 ([5]; Table S3, experimentally derived IC50, read-out: IC50 (μM), iNOS (Table S3)) [µM] | IC50 [3, 14] [µM] | ROS production reduced to, compared to Men treatment alone ([7]; 10 µM) | ROS formation reduced to [7] | IC50 ([1]; Mus musculus, RAW264.7) [µM] | inhibition at 25 µM ([5]; Mus musculus, RAW264.7, 25 µM, 24 h, vs LPS-only treatment) [%] | IC50 ([5]; Mus musculus, RAW264.7, LPS 1 µg/mL, RAW 264.7, 24 h, read-out: IC50 (µM) NO Inhibition) [µM]
1 | C[n+]1c(Cl)c(Cl)n(CC(O)c2ccccc2)[c]1[Ag-][O]C(=O)[C@@H]1CCCN1C(=O)OC(C)(C)C (some centres unmarked) [2aP] | > 50 | 15 ± 0.9 | 15 ± 1.02 | > 25 | >1.37 | 18.2 ± 2.4 | 18.2 ± 0.02 | > 50 | 1.53 | 9.82 ± 0.84 | – | – | – | – | – | – | – | – | –
2 | C[n+]1c(-c2ccccc2)c(-c2ccccc2)n(CC(O)c2ccccc2)[c]1[Au-][O]C(=O)[C@@H]1CCCN1C(=O)OC(C)(C)C (some centres unmarked) [3bP] | 20.3 ± 1.26 | – | 1.84 ± 0.18 | 5.89 ± 0.56 | – | > 25 | – | 4.88 ± 0.58 | 0.39 | 4.75 ± 0.75 | approximately 70% | about 52% | 4.9 ± 0.5 | – | – | – | – | – | –
3 | C[n+]1[c]([Au-][O]C(=O)[C@@H]2CCCN2C(=O)OC(C)(C)C)n(CC(O)c2ccccc2)c2ccccc21 (some centres unmarked) [4bP] | 12.1 ± 1.03 | – | 0.0713 | 3.72 ± 0.44 | 8.27 | 0.45 ± 0.06 | – | 13.1 ± 0.92 | 0.03 | 2.1 ± 0.2 | – | – | – | 3.7 ± 0.02 | approximately 60% | – | – | – | –
4 | C[n+]1[c]([Ag-][O]C(=O)[C@@H]2CCCN2C(=O)OC(C)(C)C)n(CC(O)c2ccccc2)c2ccccc21 (some centres unmarked) [4aP] | > 50 | 3.3 ± 0.01 | 3.32 ± 0.15 | 14 ± 0.72 | 2.68 | 5.19 ± 0.95 | 5.2 ± 0.05 | > 50 | 0.32 | 10.4 ± 1.95 | – | – | – | 13.9 ± 0.01 | – | – | – | – | –
5 | CC(=O)N[C@@H](CS)C(=O)O [NAC, N-acetyl-cysteine, reference compound] | – | – | – | – | – | – | – | – | – | – | – | – | – | – | – | approximately 70% | – | – | –
6 | C[n+]1c(Cl)c(Cl)n(CC(O)c2ccccc2)[c]1[Au-][O]C(=O)[C@@H]1CCCN1C(=O)OC(C)(C)C (some centres unmarked) [2bP] | > 50 | – | 0.72 ± 0.02 | 4.68 ± 0.47 | 1.49 | 3.14 ± 0.33 | 3.1 ± 0.02 | 32.3 ± 1.82 | 0.37 | 1.94 ± 0.09 | – | – | – | 4.7 ± 0.02 | – | – | – | – | –
7 | COc1ccc2c(c1)c(CC(=O)O)c(C)n2C(=O)c1ccc(Cl)cc1 [Indomethacin, reference compound] | – | – | – | – | – | – | – | – | – | – | – | – | – | – | – | – | > 50 | ~20 | > 50
8 | C[n+]1ccn(CC(O)c2ccccc2)[c]1[Ag-][O]C(=O)[C@@H]1CCCN1C(=O)OC(C)(C)C (some centres unmarked) [1aP] | > 50 | – | > 25 | > 25 | – | > 25 | – | > 50 | – | > 25 | – | – | – | – | – | – | – | – | –
9 | C[n+]1c(-c2ccccc2)c(-c2ccccc2)n(CC(O)c2ccccc2)[c]1[Ag-][O]C(=O)[C@@H]1CCCN1C(=O)OC(C)(C)C (some centres unmarked) [3aP] | > 50 | – | 25 ± 2.95 | > 25 | >1.44 | 17.4 ± 0.98 | – | 30.9 ± 1.74 | – | > 25 | – | approximately 8% | – | – | – | – | – | – | –
10 | C[n+]1ccn(CC(O)c2ccccc2)[c]1[Au-][O]C(=O)[C@@H]1CCCN1C(=O)OC(C)(C)C (some centres unmarked) [1bP] | > 50 | – | 1.32 ± 0.02 | 18.4 ± 1.43 | 2.97 | 6.19 ± 0.91 | – | > 50 | 0.35 | 3.78 ± 0.16 | – | – | – | – | – | – | – | – | –

Source: article PMC12249917, “Novel Au(I)- and Ag(I)-NHC Complexes with N-Boc-Protected Proline as Potential Candidates for Neurodegenerative Disorders” (International Journal of Molecular Sciences, 2025)
